Data on ten compounds can be found in ChEMBL document CHEMBL1201862, “PubChem BioAssay data set” (2004).

Structures are written as SMILES.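 Values below derive from 48-hour exposures of cells grown in 96-well plates, with endpoints linearly interpolated between the two concentrations bracketing the appropriate inhibition level. Abbreviation: GI50, concentration required for 50% inhibition of growth.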 Activity calls are given as the source filed them. Rule as the data show it: active = GI50 up to about 1.1 µM and inactive = higher.

Among the test systems are ACHN; CCRF-CEM; HCT-15; HL-60; HOP-62; HT-29; MDA-MB-231; Malme-3M; NCI-H522; OVCAR-3; OVCAR-4; PC-3; RPMI-8226; RXF 393; SK-MEL-2; SK-MEL-5; SN12C; SNB-19; SR; TK-10.
Holding throughout (test): NCI-60 cell line screen, 48 h

For the compound `CC(=O)c1c2c(cc3c1CC1(C3)Cc3ccc4c(c3C1=O)CCC4)CCC2` (stereo not given), the GI50 is 65.3 µM (inactive) in the test on ACHN; 19.3 µM (inactive) with CCRF-CEM; 16.1 µM in the test on HCT-15; 3.58 µM (inactive) in the test with HL-60; > 100 µM (inactive) with HOP-62; 11.8 µM (inactive) in the test with HT-29. Besides, the GI50 with MDA-MB-231 was 24.7 µM (inactive); with Malme-3M, 30.6 µM (inactive); with NCI-H522, 0.74 µM (active); in the test with OVCAR-3 it was > 100 µM (inactive); with OVCAR-4, 23.9 µM (inactive); with PC-3 it was 16 µM (inactive). For the same compound, the GI50 in the test on RPMI-8226 is 13.5 µM (inactive); in the test with RXF 393, 9.64 µM (inactive); in the test with SK-MEL-2, 34.8 µM (inactive); in the test on SK-MEL-5 it was 13.4 µM (inactive); with SN12C, 48.2 µM (inactive); in the test on SNB-19, > 100 µM (inactive). For the same compound, the figures for the GI50 with SR and with TK-10 were 4.61 µM (inactive) and 11.1 µM (inactive), respectively.

As for `Nc1nc(N)c(CCCCc2ccc([N+](=O)[O-])cc2)c(N)n1`, the GI50 in the test with ACHN is 27.9 µM (inactive); in the test with CCRF-CEM, > 20.3 µM (inactive); with HCT-15, 6.65 µM; in the test on HL-60 it was 2.84 µM (inactive); with HOP-62, > 100 µM (inactive); in the test on HT-29, 7.67 µM (inactive). The GI50 was > 100 µM (inactive) in the test with MDA-MB-231; 41.9 µM (inactive) with Malme-3M; > 83.6 µM (inactive) with NCI-H522; > 100 µM (inactive) in the test with OVCAR-3; > 100 µM (inactive) with OVCAR-4; 7.71 µM (inactive) in the test on PC-3. Also, the GI50 with RPMI-8226 was > 25.9 µM (inactive); with RXF 393 it was 24.9 µM (inactive); in the test with SK-MEL-2, > 100 µM (inactive); in the test on SK-MEL-5, 16.7 µM (inactive); with SN12C, > 79.4 µM (inactive); in the test with SNB-19 it was > 100 µM (inactive). For the same compound, the values for the GI50 in the test on SR and in the test with TK-10 were 10.6 µM (inactive) and > 100 µM (inactive), respectively.

On to `C=C(C)C1CC[C@@](C)(O)[C@H](C#N)C1` (stereo not given in full), for which the GI50 was > 100 µM (inactive) in the test on ACHN; > 100 µM (inactive) in the test with CCRF-CEM; more than 100 µM with HCT-15; > 100 µM (inactive) in the test with HL-60; > 100 µM (inactive) with HOP-62; > 100 µM (inactive) in the test on HT-29. Besides, the GI50 is > 100 µM (inactive) with MDA-MB-231; > 100 µM (inactive) in the test on Malme-3M; > 100 µM (inactive) in the test on NCI-H522; > 100 µM (inactive) in the test with OVCAR-3; > 100 µM (inactive) in the test with OVCAR-4; 71 µM (inactive) in the test on PC-3. Besides, the GI50 in the test on RPMI-8226, in the test with RXF 393, in the test on SK-MEL-2, with SK-MEL-5, with SN12C and with SNB-19 was > 100 µM (inactive) throughout. Further, the GI50 with SR and in the test on TK-10 was > 100 µM (inactive) in each case.

As to `CN(C)CCNC(=O)c1cccc2nc3c(C(=O)NCCN(C)C)cccc3nc12`, the GI50 is 0.668 µM (active) in the test on ACHN; 0.59 µM (active) with CCRF-CEM; 2.98 µM in the test with HCT-15; 0.713 µM (active) with HL-60; 1.31 µM (inactive) with HOP-62; 0.321 µM (active) in the test with HT-29. For the same compound, the GI50 is 1.14 µM (inactive) in the test with MDA-MB-231; 1.77 µM (inactive) in the test on Malme-3M; 0.458 µM (active) in the test on NCI-H522; 1.7 µM (inactive) in the test with OVCAR-3; 0.589 µM (active) in the test with OVCAR-4; 0.76 µM (active) with PC-3. Besides, the GI50 in the test on RPMI-8226 is 1.19 µM (inactive); in the test with RXF 393, 1.44 µM (inactive); with SK-MEL-2, 1.77 µM (inactive); in the test on SK-MEL-5, 1.56 µM (inactive); in the test on SN12C it was 0.918 µM (active); with SNB-19, 1.11 µM (active). In addition, the GI50 in the test on SR is 0.368 µM (active); with TK-10 it was 1.86 µM (inactive).

Regarding `CCOC(=O)/C=C(/C(=O)OCC)n1cc(Cl)c(=O)n(CC(=O)OCC)c1=O`, the GI50 in the test on ACHN is 3.4 µM (inactive); in the test on CCRF-CEM, 0.444 µM (active); in the test with HCT-15, 5.46 µM; with HL-60, 3.85 µM (inactive); in the test on HOP-62, 22.4 µM (inactive); with HT-29, 4.56 µM (inactive). For the same compound, the GI50 with MDA-MB-231 was 5.71 µM (inactive); with Malme-3M it was 6.11 µM (inactive); with NCI-H522 it was 1.45 µM (inactive); in the test on OVCAR-3 it was 5.98 µM (inactive); in the test on OVCAR-4, 6.03 µM (inactive); in the test on PC-3, 4.76 µM (inactive). For the same compound, the GI50 in the test on RPMI-8226 is 2.47 µM (inactive); in the test with RXF 393, 4.57 µM (inactive); in the test with SK-MEL-2 it was 4.84 µM (inactive); in the test with SK-MEL-5, 5.66 µM (inactive); in the test with SN12C it was 5.64 µM (inactive); with SNB-19, > 25 µM (inactive). Moreover, the GI50 in the test with SR was 5.24 µM (inactive); in the test with TK-10, 4.14 µM (inactive).

As for `CC(C)(C)C1=CC(=C2C=Cc3ccccc3O2)C=C(C(C)(C)C)C1=O`, the GI50 was 5.51 µM (inactive) in the test on ACHN; 2.09 µM (inactive) in the test on CCRF-CEM; 3.13 µM in the test on HCT-15; 1.9 µM (inactive) in the test with HL-60; 6.04 µM (inactive) in the test on HOP-62; 3.76 µM (inactive) in the test on HT-29. In addition, the GI50 in the test with MDA-MB-231 was 3.41 µM (inactive); in the test on Malme-3M, 3.81 µM (inactive); in the test with NCI-H522, 3.53 µM (inactive); in the test with OVCAR-3, 2.23 µM (inactive); in the test on OVCAR-4, 2.41 µM (inactive); in the test with PC-3 it was 4.09 µM (inactive). For the same compound, the GI50 in the test with RPMI-8226 was 2.15 µM (inactive); with RXF 393, 2.25 µM (inactive); in the test on SK-MEL-2 it was 2.13 µM (inactive); with SK-MEL-5 it was 3.81 µM (inactive); in the test with SN12C, 3.21 µM (inactive); in the test on SNB-19, 9.16 µM (inactive). For the same compound, the GI50 with SR was 1.85 µM (inactive); with TK-10, 3.87 µM (inactive).

For the compound `O=C1C=CC(=O)C(N(CCO)CCO)=C1.O=C1C=CC2(O)OCCN(CCO)C2=C1`, the GI50 with ACHN was > 100 µM (inactive); with CCRF-CEM, > 100 µM (inactive); in the test on HCT-15, more than 100 µM; with HL-60, > 100 µM (inactive); in the test on HOP-62, > 100 µM (inactive); in the test with HT-29, > 100 µM (inactive). Moreover, the GI50 with MDA-MB-231, in the test with Malme-3M, in the test on NCI-H522, with OVCAR-3, with OVCAR-4 and with PC-3 was > 100 µM (inactive) throughout. The GI50 with RPMI-8226 is 91.6 µM (inactive); with RXF 393 it was > 100 µM (inactive); with SK-MEL-2, > 100 µM (inactive); in the test on SK-MEL-5, > 100 µM (inactive); with SN12C it was > 100 µM (inactive); in the test with SNB-19 it was > 100 µM (inactive). Further, the figures for the GI50 in the test on SR and in the test with TK-10 were 34.8 µM (inactive) and > 100 µM (inactive), respectively.

For the compound `CC[C@@]1(O)C(=O)OCc2c1cc1n(c2=O)Cc2c-1nc1ccccc1c2/C=N/NC(=O)C[N+](C)(C)C`, the GI50 in the test with ACHN was 0.277 µM (active); in the test with CCRF-CEM, 0.123 µM (active); in the test with HCT-15, 14 µM; in the test on HL-60 it was 0.668 µM (active); in the test on HOP-62 it was 0.359 µM (active); in the test with HT-29, 13.2 µM (inactive). Besides, the GI50 is > 100 µM (inactive) with MDA-MB-231; 16.7 µM (inactive) in the test with Malme-3M; 2.26 µM (inactive) in the test with NCI-H522; 38.3 µM (inactive) with OVCAR-3; 41.2 µM (inactive) with OVCAR-4; 9.59 µM (inactive) in the test with PC-3. In addition, the GI50 in the test on RPMI-8226 was 4.93 µM (inactive); in the test with RXF 393, 0.697 µM (active); in the test with SK-MEL-2, > 83.6 µM (inactive); in the test with SK-MEL-5, 1.5 µM (inactive); in the test with SN12C, 0.0857 µM (active); in the test with SNB-19 it was 0.75 µM (active). Moreover, the GI50 in the test on SR was 0.0391 µM (active); in the test on TK-10, > 80.2 µM (inactive).

Consider `CCOC(=O)C1=C(C)N(Cc2ccc(Cl)cc2Cl)C2(O)C(OC)CC(=O)C3C(=O)N(c4ccccc4)C(=O)C132` (stereo not given), for which the GI50 is 3.12 µM (inactive) in the test with ACHN; 0.466 µM (active) in the test with CCRF-CEM; 1.36 µM in the test with HCT-15; 2.24 µM (inactive) in the test with HL-60; 0.995 µM (active) in the test with HOP-62; 1.75 µM (inactive) with HT-29. Besides, the GI50 is 1.38 µM (inactive) in the test with MDA-MB-231; 10.6 µM (inactive) with Malme-3M; 2.01 µM (inactive) in the test on NCI-H522; 1.33 µM (inactive) in the test on OVCAR-3; 1.6 µM (inactive) with OVCAR-4; 2.64 µM (inactive) with PC-3. Also, the GI50 is 1.21 µM (inactive) in the test with RPMI-8226; 1.11 µM (active) in the test on RXF 393; 1.28 µM (inactive) in the test on SK-MEL-2; 3.97 µM (inactive) with SK-MEL-5; 2.26 µM (inactive) in the test on SN12C; 2.53 µM (inactive) with SNB-19. For the same compound, the GI50 with SR was 1.57 µM (inactive); with TK-10, 10 µM (inactive).

Take `COc1c(O)cc(/C=C/c2cc(O)cc3c2[C@@]2(C(=O)O3)c3c(O)cc(O)cc3OC2c2cccc(O)c2)cc1O` (stereo not given in full): the GI50 is 27.4 µM (inactive) in the test with ACHN; 30.5 µM (inactive) with CCRF-CEM; 30.5 µM with HCT-15; 28 µM (inactive) in the test with HL-60; > 100 µM (inactive) in the test with HOP-62; 30.5 µM (inactive) with HT-29. Also, the GI50 in the test with MDA-MB-231 is > 100 µM (inactive); in the test with Malme-3M, > 100 µM (inactive); in the test with NCI-H522, 34.8 µM (inactive); with OVCAR-3 it was 54 µM (inactive); in the test on OVCAR-4, 19.6 µM (inactive); with PC-3, 51.8 µM (inactive). The GI50 was 14.7 µM (inactive) with RPMI-8226; 52.2 µM (inactive) in the test on RXF 393; 94 µM (inactive) with SK-MEL-2; 32 µM (inactive) in the test on SK-MEL-5; 19.2 µM (inactive) in the test with SN12C; 39.3 µM (inactive) in the test on SNB-19. Moreover, the GI50 is 1.57 µM (inactive) in the test with SR and 95.9 µM (inactive) in the test on TK-10.
